{
  "source": "patent US20240350430A1",
  "about": "“GROWTH INHIBITOR OF METASTATIC HUMAN PROSTATE CANCER CELLS” (Watanabe Oyster Laboratory Co., Ltd., priority 2021, published 2024)",
  "key": {"DU-145 cells": {"tested_on": "DU-145 cells", "assay": "Colony formation of DU-145 cells", "assay_type": "cell-based, human", "conditions": "DHMBA 1 or 10 μM, nine days", "method": "The PC-3 and DU-145 cells (1×10^3/in 2 ml of a culture fluid per hole using a six-hole plate) were cultured in a DMEM culture fluid (containing 10% of FBS, 1% of P/S, and 1% of fungizone) containing the DHMBA (1 and 10 μM) under 5% of CO2, at 37° C., for nine days. After the culture, the culture fluid was removed, the cells were washed twice with PBS, 95% of methanol (0.5 ml) was added, and the cells were fixed for 20 minutes. After the fixation, each well of a culture dish was washed four times with PBS (1 ml), and after that 0.5% of crystal violet (0.5 ml) was added, and the product was left for two hours at room temperature for staining. After the stain solution was washed to be removed, drying was performed, and after that colonies containing 50 or more cells were counted by a microscope (Olympus MTV-3, Olympus Corporation, Tokyo, Japan).\nFIG. 2(A) is a drawing in which the DU-145 cells (1×10^3 cells/per well of a six-well plate) were cultured under 5% of CO2, at 37° C., for nine days in a DMEM culture fluid (containing 10% of FBS, 1% of P/S, and 1% of fungizone) containing the DHMBA (1 or 10 μM).\nFIG. 2(B) is a diagram of counting the number of colonies."}, "PC-3 cells": {"tested_on": "PC-3 cells", "assay": "Cell death of sub-confluent PC-3 cells (adherent cell counting)", "assay_type": "cell-based, human", "method": "The PC-3 and DU-145 cells (1×10^5/in 1 ml of a culture fluid per hole using a 24-hole plate) were cultured in a DMEM culture fluid (containing 10% of FBS, 1% of P/S, and 1% of fungizone) under 5% of CO2, at 37° C., for three days, and when the cells reached sub-confluence, the culture fluid was exchanged for the one containing the DHMBA (0.01, 0.1, 1, 10, 100, or 1000 μM), and the cells were cultured for 24 and 48 hours. After the culture, the cells adhering to the bottom surface of the dish were removed and counted. In another experiment, after the culture for three days, when the cells reached sub-confluence, the culture fluid was exchanged for a culture fluid containing the DHMBA (1 or 10 μM) and a caspase-3 inhibitor (10 μM), and the cells were counted after the culture for 48 hours. Further, after the culture for three days, when the cells reached sub-confluence, the culture fluid was exchanged for a culture fluid obtained by adding gemcitabine (0.1, 1, 10, 50 or 100 nM) or CH223191 (1, 10, and 25 μM) to a DMEM culture fluid containing the DHMBA (1 or 10 μM) or not containing the DHMBA, and the cells were counted after the culture for 48 hours.\nAfter the culture of the cells, 0.1 ml of 0.05% trypsin-EDTA solution obtained by dissolving the cells adhering to the bottom surface of the culture dish in PBS (Thermo Fisher Scientific, Waltham, MA, USA) not containing Ca^2+/Mg^2+ was added, incubation was performed at 37° C. for two minutes to release the adhering cells, and 0.9 ml of the DMEM culture fluid containing 10% of FBS and 1% of P/S was added to stop the reaction. The visible cells were counted by the Olympus MTV-3 microscope using a hemocytometer (Sigma-Aldrich).\n(§1) In the drawing, the PC-3 (FIGS. 5(A) and 5(B)) and DU-145 (FIGS. 5(D) and 5(E)) cells (1×10^5/in 1 ml of a culture fluid per hole using a 24-hole plate) were cultured under 5% of CO2, at 37° C., for three days in a DMEM culture fluid (containing 10% of FBS, 1% of P/S, and 1% of fungizone), and when the cells reached sub-confluence, the culture fluid was exchanged for the one containing the DHMBA (0.01, 0.1, 1, 10, 100, or 1000 μM), and the cells were cultured for 24 and 48 hours. In the drawing, after the culture, the cells adhering to the dish were counted.\nIn another experiment, after the culture for three days, when the cells reached sub-confluence, for the PC-3 (FIG. 5(C)) or DU-145 (FIG. 5(F)) cells, the culture fluid was exchanged for a culture fluid containing the DHMBA (1 or 10 μM) and a caspase-3 inhibitor (10 μM), and the cells were counted after the culture for 48 hours. Further, after the culture for three days, when the cells reached sub-confluence, the culture fluid was exchanged for a culture fluid obtained by adding gemcitabine (0.1, 1, 10, 50 or 100 nM) or CH223191 (1, 10, and 25 μM) to a DMEM culture fluid containing the DHMBA (1 or 10 μM) or not containing the DHMBA, and the cells were counted after the culture for 48 hours. After the culture, the cells adhered to the dish were removed and counted. Each piece of data is shown with a mean value and a standard deviation of values obtained from eight wells of the different cultured cells. *p<0.001, comparison with the control (gray bar). 1-way ANOVA, Tukey-Kramer post-test.\nas §1, with “The” for “In the drawing, the”, “PC-3” for “PC-3 (FIGS. 5(A) and 5(B)) and DU-145 (FIGS. 5(D) and 5(E))”, “gemcitabine (1,” for “DHMBA (0.01, 0.1, 1,”, “10, 50,” for “10,”, “250 nM),” for “1000 μM),”, “for” for “for 24 and”\nAfter the culture for three days, when the cells reached sub-confluence, the culture fluid was exchanged for a culture fluid containing the DHMBA (1 or 10 μM) and gemcitabine (1, 10, or 100 nM), and the cells were counted after the culture for 48 hours. […]"}},
  "data": [
    {"smiles": "COc1c(O)cc(CO)cc1O", "note": "[DHMBA, 3,5-dihydroxy-4-methoxybenzyl alcohol]", "values": [
      {"measurement": "colony formation", "setting": "DU-145 cells", "value": "significantly inhibited"},
      {"measurement": "cell death inducing effect of DHMBA in the presence of CH223191", "setting": "PC-3 cells; DHMBA 10 μM with CH223191 1, 10, or 25 μM, 48 hours", "value": "found not to be expressed"},
      {"measurement": "cell death", "setting": "PC-3 cells; DHMBA 1, 10, 100, or 1000 μM, 24 and 48 hours", "value": "significantly increased"},
      {"measurement": "cell death inducing action of DHMBA in the presence of gemcitabine 1 or 10 nM", "setting": "PC-3 cells; DHMBA 1 and 10 μM, 48 hours", "value": "did not occur"},
      {"measurement": "cell death inducing effect of DHMBA in the coexistence of gemcitabine 100 nM", "setting": "PC-3 cells; DHMBA 1 and 10 μM, 48 hours", "value": "significantly enhanced"},
      {"measurement": "increase of cell death in the presence of caspase-3 inhibitor", "setting": "PC-3 cells; DHMBA 1 or 10 μM with caspase-3 inhibitor 10 μM, 48 hours", "value": "not caused"}
    ]}
  ]
}
